Laboratory results from ChEMBL document CHEMBL5291721, “A preclinical secondary pharmacology resource illuminates target-adverse drug reaction associations of marketed drugs” (Nat Commun, 2023).

Key:
Histamine H2 receptor = Histamine H2 receptor (Homo sapiens, UniProt P25021); assay type: functional, cell-based
[1] = biological target: T1, 5-hydroxytryptamine receptor 2C (Homo sapiens, UniProt P28335)
T1 sequence (P28335 whole entry): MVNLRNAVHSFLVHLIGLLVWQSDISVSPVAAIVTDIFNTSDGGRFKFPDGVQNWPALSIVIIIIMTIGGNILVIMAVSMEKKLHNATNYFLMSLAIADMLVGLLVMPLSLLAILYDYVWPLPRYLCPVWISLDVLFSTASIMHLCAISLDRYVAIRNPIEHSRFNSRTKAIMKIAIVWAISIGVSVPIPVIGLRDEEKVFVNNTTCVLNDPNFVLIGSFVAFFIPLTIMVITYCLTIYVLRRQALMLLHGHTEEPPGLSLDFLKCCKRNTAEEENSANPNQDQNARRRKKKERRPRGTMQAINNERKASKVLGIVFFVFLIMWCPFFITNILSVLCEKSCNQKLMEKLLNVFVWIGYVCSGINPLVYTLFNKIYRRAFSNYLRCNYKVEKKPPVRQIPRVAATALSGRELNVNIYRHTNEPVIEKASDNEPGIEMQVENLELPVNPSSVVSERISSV

Adenosine receptor A1 = biological target: T2, Adenosine receptor A1 (Homo sapiens, UniProt P30542)
T2 sequence (P30542 whole entry): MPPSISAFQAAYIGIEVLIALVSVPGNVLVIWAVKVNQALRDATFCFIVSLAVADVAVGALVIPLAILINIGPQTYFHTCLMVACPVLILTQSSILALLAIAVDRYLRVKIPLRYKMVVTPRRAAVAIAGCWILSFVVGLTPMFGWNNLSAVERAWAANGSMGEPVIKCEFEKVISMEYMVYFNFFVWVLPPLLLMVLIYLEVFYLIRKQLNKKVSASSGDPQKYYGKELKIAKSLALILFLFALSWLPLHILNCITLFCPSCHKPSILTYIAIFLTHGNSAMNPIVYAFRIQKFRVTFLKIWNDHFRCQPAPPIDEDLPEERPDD

[2] = biological target: T3, Equilibrative nucleoside transporter 1 (Homo sapiens, UniProt Q99808)
T3 sequence (Q99808 whole entry): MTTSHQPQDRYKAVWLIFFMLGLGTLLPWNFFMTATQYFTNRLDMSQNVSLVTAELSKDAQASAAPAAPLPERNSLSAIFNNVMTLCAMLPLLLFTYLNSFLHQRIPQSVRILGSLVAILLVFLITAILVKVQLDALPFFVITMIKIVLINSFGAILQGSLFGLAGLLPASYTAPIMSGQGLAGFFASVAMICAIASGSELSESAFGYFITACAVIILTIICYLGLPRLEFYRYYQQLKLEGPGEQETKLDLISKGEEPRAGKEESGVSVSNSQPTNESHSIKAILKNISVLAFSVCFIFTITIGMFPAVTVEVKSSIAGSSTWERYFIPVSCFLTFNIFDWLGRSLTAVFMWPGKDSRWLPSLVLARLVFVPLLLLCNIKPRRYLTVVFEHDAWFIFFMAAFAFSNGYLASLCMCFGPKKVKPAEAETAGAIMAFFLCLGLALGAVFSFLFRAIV

B2 bradykinin receptor = biological target: T4, B2 bradykinin receptor (Homo sapiens, UniProt P30411)
T4 sequence (P30411 whole entry): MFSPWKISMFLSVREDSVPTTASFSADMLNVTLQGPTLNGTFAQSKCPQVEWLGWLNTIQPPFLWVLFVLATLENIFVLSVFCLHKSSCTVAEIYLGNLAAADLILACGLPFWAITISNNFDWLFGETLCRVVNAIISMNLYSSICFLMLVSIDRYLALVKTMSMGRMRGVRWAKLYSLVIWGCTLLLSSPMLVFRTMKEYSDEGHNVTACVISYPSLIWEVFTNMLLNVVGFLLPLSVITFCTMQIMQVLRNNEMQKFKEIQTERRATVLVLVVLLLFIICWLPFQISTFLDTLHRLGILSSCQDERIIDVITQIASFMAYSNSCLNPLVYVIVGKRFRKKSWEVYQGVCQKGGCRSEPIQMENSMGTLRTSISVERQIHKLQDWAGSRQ

Vasopressin V2 receptor = Vasopressin V2 receptor (Homo sapiens, UniProt P30518)
Sequence of Vasopressin V2 receptor (P30518 whole entry): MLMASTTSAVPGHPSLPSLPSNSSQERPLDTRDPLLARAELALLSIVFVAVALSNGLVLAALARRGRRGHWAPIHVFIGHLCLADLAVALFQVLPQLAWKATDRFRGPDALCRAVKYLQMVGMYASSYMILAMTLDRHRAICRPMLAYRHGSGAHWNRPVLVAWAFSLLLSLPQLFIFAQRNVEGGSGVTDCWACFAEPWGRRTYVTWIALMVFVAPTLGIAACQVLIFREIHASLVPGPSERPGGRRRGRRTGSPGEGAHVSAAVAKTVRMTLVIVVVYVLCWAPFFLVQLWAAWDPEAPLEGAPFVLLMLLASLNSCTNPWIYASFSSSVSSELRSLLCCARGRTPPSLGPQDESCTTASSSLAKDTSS

[3] = biological target: T5, Alpha-1A adrenergic receptor (Homo sapiens, UniProt P35348); assay type: functional, cell-based
T5 sequence (P35348 whole entry): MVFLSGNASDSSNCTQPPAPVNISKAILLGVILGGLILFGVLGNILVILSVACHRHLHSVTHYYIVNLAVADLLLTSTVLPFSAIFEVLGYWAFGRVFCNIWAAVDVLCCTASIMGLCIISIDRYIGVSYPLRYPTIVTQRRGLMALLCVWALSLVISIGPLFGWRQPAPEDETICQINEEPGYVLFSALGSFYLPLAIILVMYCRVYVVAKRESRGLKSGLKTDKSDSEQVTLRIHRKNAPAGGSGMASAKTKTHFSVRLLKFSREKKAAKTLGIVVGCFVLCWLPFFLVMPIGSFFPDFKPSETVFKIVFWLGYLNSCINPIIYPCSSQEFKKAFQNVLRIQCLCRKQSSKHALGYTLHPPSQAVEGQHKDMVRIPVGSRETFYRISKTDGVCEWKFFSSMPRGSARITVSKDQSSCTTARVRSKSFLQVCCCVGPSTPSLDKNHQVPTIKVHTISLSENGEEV

[4] = biological target: T6, Alpha-2A adrenergic receptor (Homo sapiens, UniProt P08913); assay type: functional, cell-based
T6 sequence (P08913 whole entry): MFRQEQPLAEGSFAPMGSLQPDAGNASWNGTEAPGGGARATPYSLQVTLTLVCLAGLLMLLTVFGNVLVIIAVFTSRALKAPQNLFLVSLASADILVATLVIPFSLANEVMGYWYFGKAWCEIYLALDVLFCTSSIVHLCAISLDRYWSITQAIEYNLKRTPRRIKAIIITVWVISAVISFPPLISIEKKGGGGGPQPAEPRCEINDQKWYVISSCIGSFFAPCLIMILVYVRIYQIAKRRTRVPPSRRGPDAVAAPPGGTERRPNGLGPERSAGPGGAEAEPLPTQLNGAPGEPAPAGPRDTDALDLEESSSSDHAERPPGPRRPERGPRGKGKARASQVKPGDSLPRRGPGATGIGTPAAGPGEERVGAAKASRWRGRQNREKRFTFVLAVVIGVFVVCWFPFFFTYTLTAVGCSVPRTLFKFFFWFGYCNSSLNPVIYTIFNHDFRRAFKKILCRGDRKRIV

[5] = biological target: Beta-1 adrenergic receptor (Homo sapiens, UniProt P08588); assay type: functional
Sequence of Beta-1 adrenergic receptor (P08588 whole entry): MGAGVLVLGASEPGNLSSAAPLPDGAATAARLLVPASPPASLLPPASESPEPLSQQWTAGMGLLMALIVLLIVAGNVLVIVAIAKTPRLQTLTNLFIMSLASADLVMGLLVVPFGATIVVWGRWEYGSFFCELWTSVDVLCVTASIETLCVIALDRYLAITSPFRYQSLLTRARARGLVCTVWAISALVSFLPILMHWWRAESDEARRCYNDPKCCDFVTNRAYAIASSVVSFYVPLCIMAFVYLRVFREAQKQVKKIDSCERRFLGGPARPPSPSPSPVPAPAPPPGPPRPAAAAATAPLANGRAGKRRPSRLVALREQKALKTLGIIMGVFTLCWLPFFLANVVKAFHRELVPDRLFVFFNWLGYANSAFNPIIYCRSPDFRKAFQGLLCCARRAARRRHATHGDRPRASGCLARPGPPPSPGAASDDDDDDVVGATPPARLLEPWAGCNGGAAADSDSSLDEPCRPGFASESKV

[6] = biological target: cGMP-inhibited 3',5'-cyclic phosphodiesterase 3A (Homo sapiens, UniProt Q14432); assay type: functional
Sequence of cGMP-inhibited 3',5'-cyclic phosphodiesterase 3A (Q14432 whole entry): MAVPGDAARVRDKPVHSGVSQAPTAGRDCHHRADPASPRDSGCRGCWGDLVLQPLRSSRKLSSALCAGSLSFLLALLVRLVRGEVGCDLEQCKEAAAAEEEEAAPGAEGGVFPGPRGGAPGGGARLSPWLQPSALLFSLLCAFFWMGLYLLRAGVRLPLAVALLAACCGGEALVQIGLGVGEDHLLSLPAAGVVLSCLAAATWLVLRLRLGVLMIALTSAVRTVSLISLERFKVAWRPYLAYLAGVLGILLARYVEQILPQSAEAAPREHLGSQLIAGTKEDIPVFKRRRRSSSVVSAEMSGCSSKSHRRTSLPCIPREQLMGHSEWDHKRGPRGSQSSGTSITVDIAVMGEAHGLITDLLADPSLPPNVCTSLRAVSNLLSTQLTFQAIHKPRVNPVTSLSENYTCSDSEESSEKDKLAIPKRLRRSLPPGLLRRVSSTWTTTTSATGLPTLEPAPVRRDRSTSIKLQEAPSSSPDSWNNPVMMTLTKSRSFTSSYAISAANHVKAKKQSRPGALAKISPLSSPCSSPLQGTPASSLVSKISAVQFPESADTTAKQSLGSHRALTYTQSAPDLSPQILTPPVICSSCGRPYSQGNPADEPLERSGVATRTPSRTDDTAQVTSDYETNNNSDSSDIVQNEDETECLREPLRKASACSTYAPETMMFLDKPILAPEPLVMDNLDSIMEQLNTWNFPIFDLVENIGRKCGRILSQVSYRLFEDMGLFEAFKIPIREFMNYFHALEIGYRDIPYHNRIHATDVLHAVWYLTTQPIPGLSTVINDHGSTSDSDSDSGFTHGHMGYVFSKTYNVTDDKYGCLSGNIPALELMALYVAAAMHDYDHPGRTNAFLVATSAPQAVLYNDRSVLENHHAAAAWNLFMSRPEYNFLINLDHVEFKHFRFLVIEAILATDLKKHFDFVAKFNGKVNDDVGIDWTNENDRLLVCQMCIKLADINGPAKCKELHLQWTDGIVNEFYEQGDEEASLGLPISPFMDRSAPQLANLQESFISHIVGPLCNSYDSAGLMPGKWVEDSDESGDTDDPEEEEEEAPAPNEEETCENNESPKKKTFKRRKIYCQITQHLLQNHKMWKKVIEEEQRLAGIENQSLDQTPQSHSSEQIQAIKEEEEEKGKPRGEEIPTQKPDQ

[7] = biological target: 5-hydroxytryptamine receptor 2B (Homo sapiens, UniProt P41595); assay type: functional, cell-based
Sequence of 5-hydroxytryptamine receptor 2B (P41595 whole entry): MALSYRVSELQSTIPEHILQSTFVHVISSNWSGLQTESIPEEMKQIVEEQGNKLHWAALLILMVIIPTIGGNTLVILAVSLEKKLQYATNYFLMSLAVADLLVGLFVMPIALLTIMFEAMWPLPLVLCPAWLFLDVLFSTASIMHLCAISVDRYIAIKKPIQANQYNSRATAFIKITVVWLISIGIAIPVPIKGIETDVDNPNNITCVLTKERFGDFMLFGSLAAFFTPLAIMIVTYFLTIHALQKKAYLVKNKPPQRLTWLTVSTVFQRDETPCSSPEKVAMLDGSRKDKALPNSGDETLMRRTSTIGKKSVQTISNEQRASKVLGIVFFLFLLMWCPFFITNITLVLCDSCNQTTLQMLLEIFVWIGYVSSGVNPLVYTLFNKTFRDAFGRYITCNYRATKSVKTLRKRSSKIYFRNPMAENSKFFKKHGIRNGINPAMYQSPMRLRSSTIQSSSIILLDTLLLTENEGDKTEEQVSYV
Also: assay procedure not described here.

Sequence of Histamine H2 receptor (P25021 whole entry): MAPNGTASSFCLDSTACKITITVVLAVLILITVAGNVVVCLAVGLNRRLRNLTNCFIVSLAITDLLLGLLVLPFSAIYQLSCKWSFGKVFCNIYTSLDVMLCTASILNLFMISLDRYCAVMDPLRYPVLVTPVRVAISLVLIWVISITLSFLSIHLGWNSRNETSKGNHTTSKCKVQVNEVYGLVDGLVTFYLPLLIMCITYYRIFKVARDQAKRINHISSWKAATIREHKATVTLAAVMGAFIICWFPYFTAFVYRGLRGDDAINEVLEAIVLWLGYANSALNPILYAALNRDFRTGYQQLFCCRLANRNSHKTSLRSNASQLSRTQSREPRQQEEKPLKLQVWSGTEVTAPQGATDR

Row | Compound | AC50 (Histamine H2 receptor) [µM] | AC50 [1] [µM] | AC50 (Adenosine receptor A1) [µM] | AC50 [2] [µM] | AC50 (B2 bradykinin receptor) [µM] | AC50 (Vasopressin V2 receptor) [µM] | AC50 [3] [µM] | AC50 [4] [µM] | AC50 [5] [µM] | AC50 [6] [µM] | AC50 [7] [µM]
1 | Fc1ccc(C(c2ccccc2)(c2ccccc2F)n2ccnc2)cc1 (stereo not given) [FLUTRIMAZOLE] | > 30 | > 30 | > 30 | > 10 | > 30 | > 30 | > 30 | > 30 | > 30 | > 30 | > 30
2 | COc1ccc2c3c1O[C@H]1[C@@H](O)CC[C@H]4[C@@H](C2)N(C)CC[C@@]341 [DIHYDROCODEINE] | > 30 | > 10 | – | – | – | – | > 30 | > 30 | – | > 30 | > 30
3 | CC(C)(C)NCC(O)COc1cccc2c1CCC(=O)N2 (stereo not given) [CARTEOLOL] | > 10 | > 30 | > 10 | > 10 | > 10 | > 10 | > 30 | > 10 | – | > 30 | > 10
4 | C[C@@H]1O[C@@H](O[C@@H]2C=C3CC[C@@H]4[C@H](CC[C@]5(C)[C@@H](c6ccc(=O)oc6)CC[C@]45O)[C@@]3(C)CC2)[C@H](O)[C@H](O)[C@H]1O [PROSCILLARIDIN] | > 30 | > 30 | > 30 | – | > 30 | > 30 | > 30 | > 30 | > 30 | > 30 | > 30
5 | Clc1ccccc1C(c1ccccc1)(c1ccccc1)n1ccnc1 [CLOTRIMAZOLE] | > 10 | > 30 | – | – | – | – | > 30 | – | > 10 | – | > 10
6 | Brc1c(NC2=NCCN2)ccc2nccnc12 [BRIMONIDINE] | > 30 | > 30 | > 30 | > 30 | > 30 | > 30 | 0.645 | – | > 30 | > 30 | > 30
7 | Cc1cc(C(C)(C)C)c(O)c(C)c1CC1=NCCN1 [OXYMETAZOLINE] | – | 6.8 | – | – | – | – | – | – | – | > 30 | 0.266
8 | Nc1nc(Cl)nc2c1ncn2[C@H]1C[C@H](O)[C@@H](CO)O1 [CLADRIBINE] | > 30 | > 30 | > 30 | > 30 | > 30 | > 30 | > 30 | > 30 | > 30 | 28 | > 30
9 | O=C1C(O)=C([C@H]2CC[C@H](c3ccc(Cl)cc3)CC2)C(=O)c2ccccc21 [ATOVAQUONE] | > 30 | > 30 | > 30 | > 30 | > 30 | > 30 | > 30 | > 30 | > 30 | > 30 | > 30
10 | COc1cccc(C2(O)CCCCC2CN(C)C)c1 (stereo not given) [TRAMADOL] | > 10 | > 30 | > 30 | > 30 | > 30 | > 30 | > 30 | > 10 | > 10 | > 30 | > 10
11 | CC1(C)CCC(CN2CCN(c3ccc(C(=O)NS(=O)(=O)c4ccc(NCC5CCOCC5)c([N+](=O)[O-])c4)c(Oc4cnc5[nH]ccc5c4)c3)CC2)=C(c2ccc(Cl)cc2)C1 [VENETOCLAX] | – | – | – | – | – | – | – | – | – | > 30 | –
12 | THIMEROSAL | – | – | – | – | – | – | – | – | – | – | > 30
13 | NC(=O)OCC(COC(N)=O)c1ccccc1 [FELBAMATE] | > 10 | > 30 | > 10 | > 10 | > 10 | > 10 | – | > 10 | > 10 | > 30 | > 10
14 | CC/C(=C(\c1ccccc1)c1ccc(OCCN(C)C)cc1)c1ccccc1 [TAMOXIFEN] | > 10 | 7 | – | – | – | – | > 30 | > 10 | 17.6 | – | > 10
15 | C[C@H]1COc2c(C3(N)CC3)c(F)cc3c(=O)c(C(=O)O)cn1c23 [PAZUFLOXACIN] | > 10 | > 30 | > 10 | > 10 | > 10 | > 10 | – | > 10 | > 10 | > 30 | > 10
16 | C#C[C@]1(O)CC[C@H]2[C@@H]3[C@H](C)CC4=C(CCC(=O)C4)[C@H]3CC[C@@]21C [TIBOLONE] | > 30 | > 30 | > 30 | > 30 | > 30 | > 30 | > 30 | > 30 | > 30 | > 30 | > 30
17 | Cc1c(OCC(F)(F)F)ccnc1C[S+]([O-])c1nc2ccccc2[nH]1 (stereo not given) [LANSOPRAZOLE] | > 10 | > 10 | 16.8 | > 30 | > 30 | > 30 | > 30 | > 10 | > 10 | > 10 | > 10
18 | CC(CC1c2ccccc2CCc2ccccc21)CN(C)C (stereo not given) [BUTRIPTYLINE] | > 30 | 3 | – | – | – | – | > 30 | > 30 | – | > 30 | > 30
19 | NC(=O)CN1CC(O)CC1=O (stereo not given) [OXIRACETAM] | > 30 | > 30 | > 30 | > 30 | > 30 | > 30 | > 30 | > 30 | > 30 | > 30 | > 30
